# Where two headings read alike, the source gives them in different places.
# Legend:
# [1] = system: HIV-1 (HIV-1 RF, HIV-1 NL4-3) in CEM-SS / MT-2 cells; test: Cytopathic effect (CPE) inhibition assay (XTT/MTT dye reduction); format: cell-based
# Protocol: T-cell lines, CEM-SS, and MT-2, and viruses HIV-1 RF and HIV-1 NL4-3 (pNL4-3) were obtained from the National Institutes of Health (AIDS Research and Reference Reagent Program, Bethesda, Md.).
# Cytopathic Effect (CPE) Inhibition Assays
# The ability of compounds to protect cells against HIV infection was measured by the […] dye reduction method, essentially as described (See Pauwels, R. Balzarini, J. Baba, M. Snoeck, R. Schols, D. Herdewijn, P. Desmyter, J. and De Clercq, E. 1988, “Rapid and automated tetrazolium-based colorimetric assay for the detection of anti-HIV compounds,”. J Virol. Methods., 20: 309–321 and Weislow, O. S. Kiser, R. Fine, D. L. Bader, J. Shoemaker, R. H. and Boyd, M. R. 1989. “New soluble-formazan assay for HIV-1 cytopathic effects: application to high-flux screening of synthetic and natural products for AIDS-antiviral activity”. J. Natl. Cancer Inst. 81:577–586). Subject cells were infected with test virus at an moi of 0.025 to 0.819 or mock infected with medium only and added at 2×10^4 cells per well into 96 well plates containing half-log dilutions of test compounds. Six days later, 50 μl of XTT (1 mg/ml XTT tetrazolium, 0.02 nM phenazine methosulfate) was added to the wells and the plate was reincubated for four hours. Viability, as determined by the amount of XTT formazan produced, was quantified spectrophotometrically by absorbance at 450 nm. Data from CPE assays were expressed as the percent of formazan produced in compound-treated cells compared to formazan produced in wells of uninfected, compound-free cells. The fifty percent effective concentration (EC50) was calculated as the concentration of compound that effected an increase in the percentage of formazan production in infected, compound-treated cells to 50% of that produced by uninfected, compound-free cells. The 50% cytotoxicity concentration (CC50) was calculated as the concentration of compound that decreased the percentage of formazan produced in uninfected, compound-treated cells to 50% of that produced in uninfected, compound-free cells. The therapeutic index was calculated by dividing the cytotoxicity (CC50) by the antiviral activity (EC50).
# [2] = target: T1, HIV-1 protease (Q7S mutant form) (Human immunodeficiency virus type 1 group M subtype B, UniProt P04585, Q495S); test: HIV-1 Protease RET assay; format: biochemical
# T1 construct: made in house
# Outline: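 Ki values fitted with the Morrison tight-binding equation from steady-state RET cleavage (ex 340, em 490 nm) of 5 μM RE(EDANS)SQNYPIVQK(DABCYL)R. Buffer pH 4.8 acetate, 1M NaCl, 5 mM DTT, 1 mg/ml BSA, 10% DMSO; 2 nM Q7S mutant dimer, 37 °C, 12 min.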
# [3] = Human immunodeficiency virus 1, NL43, unit inferred, read-out: EC50
# [4] = Human immunodeficiency virus 1, NL43, read-out: Ave CPE EC50
# [5] = Ave. Ki (nM), RET assay, Q7S enzyme, Morrison tight binding fit
smiles,measurement,setting,value
Cc1ccccc1CNC(=O)[C@H]1N(C(=O)[C@@H](O)[C@H](Cc2ccccc2)NC(=O)[C@@H](NC(=O)COc2cccc(N(C)C)c2)C(C)C)CSC1(C)C,EC50,[1]; [3],14 nM
same,Ki,"[2]; Ki, unit inferred",≤ 0.1 nM
Cc1ccccc1CNC(=O)[C@@H]1N(C(=O)[C@@H](O)[C@H](Cc2ccccc2)NC(=O)c2cccc(O)c2C)CSC12CCCC2,EC50,[1]; [3],40 nM
same,Ki,"[2]; Ki, unit inferred",0.34 nM
C=CCNC(=O)[C@H]1N(C(=O)[C@@H](O)[C@H](Cc2ccccc2)NC(=O)[C@@H](NC(=O)c2ccc3ccccc3n2)C(C)C)CSC1(C)C,EC50,[1]; [3],41 nM
same,Ki,"[2]; Ki, unit inferred",≤ 0.1 nM
Cc1ccc(C(=O)N[C@@H](Cc2ccccc2)[C@H](O)C(=O)N2CSC(C)(C)[C@H]2C(=O)NCc2cccs2)c(C)c1O,EC50,[1]; [3],332 nM
same,Ki,"[2]; Ki, unit inferred",0.39 nM
Cc1ccc(C(=O)N[C@@H](Cc2ccccc2)[C@H](O)C(=O)N2CSC(C)(C)[C@H]2C(=O)NCc2ccco2)c(C)c1O,EC50,[1]; [3],488 nM
same,Ki,"[2]; Ki, unit inferred",2 nM
Cc1ccccc1CCC(=O)[C@H]1N(C(=O)[C@@H](O)[C@H](Cc2ccccc2)NC(=O)O[C@H]2CCOC2)CSC1(C)C,EC50,[1]; [3],573 nM
same,Ki,"[2]; Ki, unit inferred",0.76 nM
CC(=O)Oc1cccc(C(=O)N[C@@H](CSc2ccccc2)[C@H](O)CN2C[C@H]3CCCC[C@H]3C[C@H]2C(=O)NCc2ccccc2C)c1C,EC50,[1]; [3],672 nM
same,Ki,"[2]; Ki, unit inferred",109 nM
Cc1ccccc1CNC(=O)[C@@H]1C[C@@H]2CCCC[C@@H]2CN1C[C@@H](O)[C@H](CSc1ccccc1)NC(=O)c1cccc(O)c1C,EC50,[1]; [3],901 nM
same,Ki,"[2]; Ki, unit inferred",6.4 nM
CC(=O)C(=O)N[C@@H](Cc1ccccc1)[C@H](O)C(=O)N1CSC(C)(C)[C@H]1C(=O)NCc1ccccc1C,EC50,[1]; [3],≥ 1000 nM
same,Ki,"[2]; Ki, unit inferred",4.7 nM
Cc1ccccc1CNC(=O)[C@H]1N(C(=O)[C@@H](O)[C@H](Cc2ccccc2)NC(=O)CBr)CSC1(C)C,EC50,[1]; [3],≥ 1000 nM
same,Ki,"[2]; Ki, unit inferred",0.78 nM
Cc1cccc(C)c1OCC(=O)N[C@@H](Cc1ccccc1)[C@H](O)C(=O)N1CSC(C)(C)[C@H]1C(=O)NC[C@H]1CCCO1,EC50,[1]; [3],≥ 1000 nM
same,Ki,"[2]; Ki, unit inferred",4.2 nM
CCN1CCc2c(C(=O)N[C@@H](Cc3ccccc3)[C@H](O)C(=O)N3CSC(C)(C)[C@H]3C(=O)NCc3ccccc3C)cccc21,EC50,[1]; [3],1010 nM
same,Ki,"[2]; Ki, unit inferred",6.7 nM
Cc1ccccc1CNC(=O)[C@H]1N(C(=O)[C@@H](O)[C@H](Cc2ccccc2)NC(=O)COc2c(C)cc(Cl)cc2C)CSC1(C)C,EC50,[1]; [3],1110 nM
same,Ki,"[2]; Ki, unit inferred",0.38 nM
Cc1ccc(C(=O)N[C@@H](Cc2ccccc2)[C@H](O)C(=O)N2CSC(C)(C)C2C(=O)N[C@@H]2C=CCCC2)c(C)c1O (stereo partly drawn),EC50,[1]; [3],1160 nM
same,Ki,"[2]; Ki, unit inferred",0.13 nM
Cc1c(O)cccc1C(=O)N[C@@H](Cc1ccccc1)[C@H](O)C(=O)N1CSC(C)(C)[C@H]1C(=O)N1CCc2ccccc2C1,EC50,[1]; [3],1180 nM
same,Ki,"[2]; Ki, unit inferred",9 nM
CC1(C)SCN(C(=O)[C@@H](O)[C@H](Cc2ccccc2)NC(=O)[C@@H]2CCCO2)[C@@H]1C(=O)N[C@H]1CCCc2ccccc21,EC50,[1]; [3],1190 nM
same,Ki,"[2]; Ki, unit inferred",4.3 nM
Cc1ccccc1CNC(=O)[C@H]1N(C(=O)[C@@H](O)C(Cc2ccccc2)NC(=O)CNc2c(C)cccc2C)CSC1(C)C (stereo partly drawn),EC50,[1]; [3],1220 nM
same,Ki,"[2]; Ki, unit inferred",2.3 nM
Cc1c(O)cccc1C(=O)N[C@@H](Cc1ccccc1)[C@H](O)C(=O)N1CSC(C)(C)[C@H]1C(=O)NC1CCC(C(C)(C)C)CC1 (stereo partly drawn),EC50,[1]; [3],1230 nM
same,Ki,"[2]; Ki, unit inferred",26 nM
CC1(C)SCN(C(=O)[C@@H](O)[C@H](Cc2ccccc2)NC(=O)CSc2nc[nH]n2)[C@@H]1C(=O)N[C@H]1CCc2ccccc21,EC50,[1]; [3],1230 nM
same,Ki,"[2]; Ki, unit inferred",3.9 nM
CC1(C)SCN(C(=O)[C@@H](O)[C@H](Cc2ccccc2)NC(=O)[C@@H]2CCCO2)[C@@H]1C(=O)N[C@H]1CCOc2ccccc21,EC50,[1]; [3],1250 nM
same,Ki,"[2]; Ki, unit inferred",7.5 nM
CC1(C)SCN(C(=O)[C@@H](O)[C@H](Cc2ccccc2)NC(=O)CSc2nc[nH]n2)[C@@H]1C(=O)N[C@@H]1C=CCCC1,EC50,[1]; [3],1280 nM
same,Ki,"[2]; Ki, unit inferred",6.1 nM
Cc1ccccc1CNC(=O)[C@H]1N(C(=O)[C@@H](O)[C@H](Cc2ccccc2)NC(=O)OC(C)(C)C)CSC1(C)C,EC50,[1]; [3],1290 nM
same,Ki,"[2]; Ki, unit inferred",3 nM
Cc1c(O)cccc1C(=O)N[C@@H](Cc1ccccc1)[C@H](O)C(=O)N1CSC(C)(C)[C@H]1C(=O)N[C@H]1CC1c1ccccc1 (stereo partly drawn),EC50,[1]; [3],1330 nM
same,Ki,"[2]; Ki, unit inferred",17.2 nM
C#CCOC(=O)N[C@@H](Cc1ccccc1)[C@H](O)C(=O)N1CSC(C)(C)[C@H]1C(=O)NCCC,EC50,[1]; [3],1350 nM
same,Ki,"[2]; Ki, unit inferred",4.8 nM
Cc1ccccc1CNC(=O)[C@H]1N(C(=O)[C@@H](O)[C@H](Cc2ccccc2)NC(=O)OCCCl)CSC1(C)C,EC50,[1]; [3],1430 nM
same,Ki,"[2]; Ki, unit inferred",0.44 nM
Cc1cccc(C)c1OCC(=O)N[C@@H](Cc1ccccc1)[C@H](O)C(=O)N1CSC(C)(C)[C@H]1C(=O)NCc1ccccc1Cl,EC50,[1]; [3],1540 nM
same,Ki,"[2]; Ki, unit inferred",≤ 0.1 nM
Cc1ccccc1CNC(=O)C1N(C(=O)[C@@H](O)[C@H](Cc2ccccc2)NC(=O)CSc2nccs2)CSC1(C)C (stereo partly drawn),EC50,[1]; [3],1550 nM
same,Ki,"[2]; Ki, unit inferred",6.9 nM
CCCOC(=O)N[C@@H](Cc1ccccc1)[C@H](O)C(=O)N1CSC(C)(C)[C@H]1C(=O)NCc1ccccc1C,EC50,[1]; [3],1550 nM
same,Ki,"[2]; Ki, unit inferred",1.1 nM
CC1(C)SCN(C(=O)[C@@H](O)[C@H](Cc2ccccc2)NC(=O)O[C@H]2CCOC2)[C@@H]1C(=O)N[C@@H]1CCOc2ccccc21,EC50,[1]; [3],1550 nM
same,Ki,"[2]; Ki, unit inferred",3.7 nM
Cc1ccccc1CNC(=O)[C@H]1N(C(=O)[C@@H](O)[C@H](Cc2ccccc2)NC(=O)COc2ccccc2C)CSC1(C)C,EC50,[1]; [3],1560 nM
same,Ki,"[2]; Ki, unit inferred",0.89 nM
CCOC(=O)N[C@@H](Cc1ccccc1)[C@H](O)C(=O)N1CSC(C)(C)[C@H]1C(=O)NCc1ccccc1C,EC50,[1]; [3],1640 nM
same,Ki,"[2]; Ki, unit inferred",0.88 nM
CCCCOC(=O)N[C@@H](Cc1ccccc1)[C@H](O)C(=O)N1CSC(C)(C)C1C(=O)NCc1ccccc1C (stereo partly drawn),EC50,[1]; [3],1760 nM
same,Ki,"[2]; Ki, unit inferred",7.6 nM
Cc1cccc(C)c1OCC(=O)N[C@@H](Cc1ccccc1)[C@H](O)C(=O)N1CSC(C)(C)[C@H]1C(=O)NCc1c(F)cccc1F,EC50,[1]; [3],1880 nM
same,Ki,"[2]; Ki, unit inferred",0.32 nM
"Cc1c(O)cccc1C(=O)N[C@@H](Cc1ccccc1)[C@H](O)C(=O)N1CSC(C)(C)[C@H]1C(=O)NC1CC1c1ccccc1 (mixture of isomers) [Example A28, (R)-3-((2S,3S)-2-Hydroxy-3-{[1-(3-hydroxy-2-methyl-phenyl)-methanoyl]-amino}-4-phenyl-butanoyl)-5,5-dimethyl-thiazolidine-4-carboxylic acid (2-phenyl-cyclopropyl)-amide]",EC50,[1]; [4],327 nM
same,Ki,[2]; [5],3.4 nM
"Cc1c(O)cccc1C(=O)N[C@@H](Cc1ccccc1)[C@H](O)C(=O)N1CSC(C)(C)[C@H]1C(=O)NCc1ccccn1 [Example A3, (R)-3-((2S,3S)-2-Hydroxy-3-{[1-(3-hydroxy-2-methyl-phenyl)-methanoyl]-amino}-4phenyl-butanoyl)-5,5-dimethyl-thiazolidine-4-carboxylic acid (pyridin-2-ylmethyl)-amide]",EC50,[1]; [4],156 nM
same,Ki,[2]; [5],0.51 nM
"Cc1c(O)cccc1C(=O)N[C@@H](Cc1ccccc1)[C@H](O)C(=O)N1CSC(C)(C)[C@H]1C(=O)NCc1cccnc1 [Example A5, (R)-3-((2S,3S)-2-Hydroxy-3-{[1-(3-hydroxy-2-methyl-phenyl)-methanoyl]-amino}-4-phenyl-butanoyl)-5,5-dimethyl-thiazolidine-4-carboxylic acid (pyridin-3-ylmethyl)-amide]",EC50,[1]; [4],148 nM
same,Ki,[2]; [5],0.2 nM

# Source: US7094909B2, “HIV protease inhibitors, compositions containing the same, their pharmaceutical uses and materials for their synthesis” (priority 2001, dated 2006)
